Experimental data as given in article PMC10542159 (bioRxiv, 2023).

How the values were obtained:
[1] = biological target: T1, spermidine/spermine acetyltransferase 1 (SAT1) (Homo sapiens, UniProt P21673)
PA1472 = PA1472 (Pseudomonas aeruginosa, UniProt Q9I3P0)
SpeG = biological target: T2, SpeG (Escherichia coli, UniProt P0A951); assay: continuous spectrophotometric acetyltransferase assay; type: biochemical
T2 sequence (P0A951 1-186): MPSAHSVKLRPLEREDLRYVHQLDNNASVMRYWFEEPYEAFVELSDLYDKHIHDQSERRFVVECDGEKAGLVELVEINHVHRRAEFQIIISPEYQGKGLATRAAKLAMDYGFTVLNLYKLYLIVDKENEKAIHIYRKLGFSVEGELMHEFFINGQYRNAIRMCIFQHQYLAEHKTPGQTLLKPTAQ

[2] = biological target: T1, spermidine/spermine acetyltransferase 1 (SAT1); assay: continuous spectrophotometric acetyltransferase assay, […] spermidine as substrate; type: biochemical
[3] = substrate: NCCCCNCCCN; assay: continuous spectrophotometric enzyme kinetics; type: biochemical, Escherichia coli; details: acetyl-CoA

T1 sequence (P21673 whole entry): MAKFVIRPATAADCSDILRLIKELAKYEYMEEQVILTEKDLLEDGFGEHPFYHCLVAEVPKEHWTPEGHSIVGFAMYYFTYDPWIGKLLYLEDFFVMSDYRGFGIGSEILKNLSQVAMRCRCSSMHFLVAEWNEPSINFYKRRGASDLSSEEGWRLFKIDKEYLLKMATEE
Chain of PA1472 (Q9I3P0 1-184): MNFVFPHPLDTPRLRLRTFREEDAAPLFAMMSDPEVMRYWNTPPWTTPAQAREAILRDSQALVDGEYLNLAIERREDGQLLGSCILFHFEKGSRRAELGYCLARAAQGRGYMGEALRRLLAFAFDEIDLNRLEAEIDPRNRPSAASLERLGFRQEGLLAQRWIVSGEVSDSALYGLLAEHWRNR

`NCCCCN` [putrescine] gave a Km [1] of 8.7 ± 2.43 mM and a Km (PA1472) of 30.7 ± 9.9 mM.

`N=C(N)c1ccc(/N=N/Nc2ccc(C(=N)N)cc2)cc1` [diminazene] was tested, and the IC50 (SpeG) was 26.2 ± 3.7 µM and the IC50 [2] was 21 ± 0.6 µM.

B1: SpeG (Escherichia coli K-12) (protein)
chain: MPSAHSVKLRPLEREDLRYVHQLDNNASVMRYWFEEPYEAFVELSDLYDKHIHDQSERRFVVECDGEKAGLVELVEINHVHRRAEFQIIISPEYQGKGLATRAAKLAMDYGFTVLNLYKLYLIVDKENEKAIHIYRKLGFSVEGELMHEFFINGQYRNAIRMCIFQHQYLAEHKTPGQTLLKPTAQ
B1 gave a K0.5 [3] of 590.1 ± 30.8 µM.
